For the experiment, the system named is recombinant NL4-3 virus (nef section replaced with Renilla luciferase gene) in MT-2 cells. In words: HIV cell culture assay (antiviral activity, luciferase readout). Type of experiment: cell-based. The note with it: Renilla, NL43, MT-2 cells infected for 4-5 days with recombinant NL4-3 Renilla luciferase virus. How it is done:
HIV cell culture assay—MT-2 cells, 293T cells and the proviral DNA clone of NL4-3 virus were obtained from the NIH AIDS Research and Reference Reagent Program. MT-2 cells were propagated in RPMI 1640 media supplemented with 10% heat inactivated fetal bovine serum (FBS), […]. The 293T cells were propagated in DMEM media supplemented with 10% heat inactivated FBS, […]. A recombinant NL4-3 proviral clone, in which a section of the nef gene was replaced with the Renilla luciferase gene, was used to make the reference virus used in these studies. The recombinant virus was prepared through transfection of the recombinant NL4-3 proviral clone into 293T cells using Transit-293 Transfection Reagent from Mirus Bio LLC (Madison, WI). Supernatant was harvested after 2-3 days and the amount of virus present was titered in MT-2 cells using luciferase enzyme activity as a marker by measuring luciferase enzyme activity. Luciferase was quantitated using the EnduRen Live Cell Substrate from Promega (Madison, WI). Antiviral activities of compounds toward the recombinant virus were quantified by measuring luciferase activity in MT-2 cells infected for 4-5 days with the recombinant virus in the presence of serial dilutions of the compound.
The 50% effective concentration (EC50) was calculated by using the exponential form of the median effect equation where (Fa)=1/[1+(ED50/drug conc.)m](Johnson V A, Byington R T. Infectivity Assay. In Techniques in HIV Research. ed. Aldovini A, Walker B D. 71-76. New York: Stockton Press. 1990). Curve fitting and analysis were performed with ActivityBase XE Runner software version 9.1.0.4 using model 203 (ID Business Solutions, LTD, Guildford, UK).
On to `Cc1cc(C2CCC(F)(F)CC2)nc2nc([C@H](Cc3cc(F)cc(F)c3)NC(=O)Cn3nc([C@H]4CC4(F)F)c4c3C[C@H]3C[C@@H]43)n(-c3ccc(Cl)c4c(NS(C)(=O)=O)nn(CCN5CC(C)(C)OC(C)(C)C5)c34)c(=O)c12` (atropisomer, axis not shown; (P)) [Example 613, N-[(1S)-1-[(3P)-3-{4-chloro-3-methanesulfonamido-1-[2-(2,2,6,6-tetramethylmorpholin-4-yl)ethyl]-1H-indazol-7-yl}-7-(4,4-difluorocyclohexyl)-5-methyl-4-oxo-3H,4H-pyrido[2,3-d]pyrimidin-2-yl]-2-(3,5-difluorophenyl)ethyl]-2-[(2R,4R)-9-[(1R)-2,2-difluorocyclopropyl]-7,8-diazatricyclo[4.3.0.0^2,^4]nona-1(6),8-dien-7-yl]acetamide], for which the 50% effective concentration (EC50) was 0.015 nM.

For `Cc1cc(C2CCC(F)(F)CC2)nc2nc([C@H](Cc3cc(F)cc(F)c3)NC(=O)Cn3nc(C4CC4)c4c3C[C@H]3C[C@@H]43)n(-c3ccc(Cl)c4c(NS(C)(=O)=O)nn(CCN5CC(C)(C)OC(C)(C)C5)c34)c(=O)c12` (atropisomer, axis not shown; (P)) [Example 606, N-[(1S)-1-[(3P)-3-{4-chloro-3-methanesulfonamido-1-[2-(2,2,6,6-tetramethylmorpholin-4-yl)ethyl]-1H-indazol-7-yl}-7-(4,4-difluorocyclohexyl)-5-methyl-4-oxo-3H,4H-pyrido[2,3-d]pyrimidin-2-yl]-2-(3,5-difluorophenyl)ethyl]-2-[(2R,4R)-9-cyclopropyl-7,8-diazatricyclo[4.3.0.0^2,^4]nona-1(6),8-dien-7-yl]acetamide], the EC50 turned out to be 0.026 nM.

In the case of `Cc1cc(C2(F)CCC(F)(F)CC2)nc2nc([C@H](Cc3cc(F)cc(F)c3)NC(=O)Cn3nc(C4CC4)c4c3C[C@@H]3C[C@H]43)n(-c3ccc(Cl)c4c(NS(C)(=O)=O)nn([C@H](C)C(=O)N5C[C@H](F)C[C@H](F)C5)c34)c(=O)c12` (relative stereo) [Example 756, N-[(1S)-1-[(3P)-3-{4-chloro-1-[(2R)-1-[(3R,5S)-3,5-difluoropiperidin-1-yl]-1-oxopropan-2-yl]-3-methanesulfonamido-1H-indazol-7-yl}-5-methyl-4-oxo-7-(1,4,4-trifluorocyclohexyl)-3H,4H-pyrido[2,3-d]pyrimidin-2-yl]-2-(3,5-difluorophenyl)ethyl]-2-[(2R*,4R*)-9-cyclopropyl-7,8-diazatricyclo[4.3.0.0^2,^4]nona-1(6),8-dien-7-yl]acetamide], the EC50 amounted to 0.037 nM. Consider `CS(=O)(=O)Nc1nn(CCN2C[C@H](F)C[C@H](F)C2)c2c(-n3c([C@H](Cc4cc(F)cc(F)c4)NC(=O)Cn4nc(C(F)F)c5c4C(F)(F)[C@@H]4C[C@H]54)nc4nc(C5CCC(F)(F)CC5)cc(CN5CC(F)(F)C5)c4c3=O)ccc(Cl)c12` (atropisomer, axis not shown; (P)) [Example 620, N-[(1S)-1-[(3P)-3-(4-chloro-1-{2-[(3R,5S)-3,5-difluoropiperidin-1-yl]ethyl}-3-methanesulfonamido-1H-indazol-7-yl)-5-[(3,3-difluoroazetidin-1-yl)methyl]-7-(4,4-difluorocyclohexyl)-4-oxo-3H,4H-pyrido[2,3-d]pyrimidin-2-yl]-2-(3,5-difluorophenyl)ethyl]-2-[(2S,4R)-9-(difluoromethyl)-5,5-difluoro-7,8-diazatricyclo[4.3.0.0^2,]nona-1(6),8-dien-7-yl]acetamide], for which the EC50 is 0.007 nM. The result for `Cc1cc(C2CCC(F)(F)CC2)nc2nc([C@H](Cc3cc(F)cc(F)c3)NC(=O)Cn3nc(C(F)F)c4c3C(F)(F)[C@@H]3C[C@H]43)n(-c3ccc(Cl)c4c(NS(C)(=O)=O)nn(C[C@@H](C)N5CC(C)(C)OC(C)(C)C5)c34)c(=O)c12` (atropisomer, axis not shown; (P)) [Example 705, N-[(1S)-1-[(3P)-3-{4-chloro-3-methanesulfonamido-1-[(2R)-2-(2,2,6,6-tetramethylmorpholin-4-yl)propyl]-1H-indazol-7-yl}-7-(4,4-difluorocyclohexyl)-5-methyl-4-oxo-3H,4H-pyrido[2,3-d]pyrimidin-2-yl]-2-(3,5-difluorophenyl)ethyl]-2-[(2S,4R)-9-(difluoromethyl)-5,5-difluoro-7,8-diazatricyclo[4.3.0.0^2,^4]nona-1(6),8-dien-7-yl]acetamide] reads 0.021 nM. The result for `Cc1cc(C2CCC(F)(F)CC2)nc2nc([C@H](Cc3cc(F)cc(F)c3)NC(=O)Cn3nc(C(F)F)c4c3C[C@@H]3C[C@H]43)n(-c3ccc(Cl)c4c(NS(C)(=O)=O)nn(CCN5CC(C)(C)OC(C)(C)C5)c34)c(=O)c12` (atropisomer, axis not shown; (P)) [Example 611, N-[(1S)-1-[(3P)-3-{4-chloro-3-methanesulfonamido-1-[2-(2,2,6,6-tetramethylmorpholin-4-yl)ethyl]-1H-indazol-7-yl}-7-(4,4-difluorocyclohexyl)-5-methyl-4-oxo-3H,4H-pyrido[2,3-d]pyrimidin-2-yl]-2-(3,5-difluorophenyl)ethyl]-2-[(2S,4S)-9-(difluoromethyl)-7,8-diazatricyclo[4.3.0.0^2,^4]nona-1(6),8-dien-7-yl]acetamide] reads 0.025 nM. In the case of `COCCCn1nc(NS(C)(=O)=O)c2c(Cl)ccc(-n3c([C@H](Cc4cc(F)cc(F)c4)NC(=O)Cn4nc(C(F)F)c5c4C(F)(F)[C@@H]4C[C@H]54)nc4nc(C5(CCN6C[C@H](F)C[C@H](F)C6)CCC(F)(F)CC5)cc(C)c4c3=O)c21` (atropisomer, axis not shown; (P)) [Example 615], the concentration for a half-maximal effect (EC50) was 0.027 nM. For `Cc1cc(C2CCC(F)(F)CC2)nc2nc([C@H](Cc3cc(F)cc(F)c3)NC(=O)Cn3nc(C(F)(F)F)c4c3C[C@@H]3C[C@H]43)n(-c3ccc(Cl)c4c(NS(C)(=O)=O)nn(CCN5CC(C)(C)OC(C)(C)C5)c34)c(=O)c12` (atropisomer, axis not shown; (P)) [Example 612, N-[(1S)-1-[(3P)-3-{4-chloro-3-methanesulfonamido-1-[2-(2,2,6,6-tetramethylmorpholin-4-yl)ethyl]-1H-indazol-7-yl}-7-(4,4-difluorocyclohexyl)-5-methyl-4-oxo-3H,4H-pyrido[2,3-d]pyrimidin-2-yl]-2-(3,5-difluorophenyl)ethyl]-2-[(2S,4S)-9-(trifluoromethyl)-7,8-diazatricyclo[4.3.0.0^2,^4]nona-1(6),8-dien-7-yl]acetamide] the value was 0.028 nM.

Regarding `Cc1cc(C2(F)CCC(F)(F)CC2)nc2nc([C@H](Cc3cc(F)cc(F)c3)NC(=O)Cn3nc(C(F)F)c4c3C(F)(F)[C@@H]3C[C@H]43)n(-c3ccc(Cl)c4c(NS(C)(=O)=O)nn(C[C@@H](C)N5CC(C)(C)OC(C)(C)C5)c34)c(=O)c12` (atropisomer, axis not shown; (P)) [Example 707, N-[(1S)-1-[(3P)-3-{4-chloro-3-methanesulfonamido-1-[(2R)-2-(2,2,6,6-tetramethylmorpholin-4-yl)propyl]-1H-indazol-7-yl}-5-methyl-4-oxo-7-(1,4,4-trifluorocyclohexyl)-3H,4H-pyrido[2,3-d]pyrimidin-2-yl]-2-(3,5-difluorophenyl)ethyl]-2-[(2S,4R)-9-(difluoromethyl)-5,5-difluoro-7,8-diazatricyclo[4.3.0.0^2,^4]nona-1(6),8-dien-7-yl]acetamide], the EC50 came out at 0.038 nM. As to `Cc1cc(C2CCC(F)(F)CC2)nc2nc([C@H](Cc3cc(F)cc(F)c3)NC(=O)Cn3nc(C4CC4)c4c3C[C@@H]3C[C@H]43)n(-c3ccc(Cl)c4c(NS(C)(=O)=O)nn(C[C@@H](C)N5CC(C)(C)OC(C)(C)C5)c34)c(=O)c12` (relative stereo) [Example 706, N-[(1S)-1-[(3P)-3-{4-chloro-3-methanesulfonamido-1-[(2R)-2-(2,2,6,6-tetramethylmorpholin-4-yl)propyl]-1H-indazol-7-yl}-7-(4,4-difluorocyclohexyl)-5-methyl-4-oxo-3H,4H-pyrido[2,3-d]pyrimidin-2-yl]-2-(3,5-difluorophenyl)ethyl]-2-[(2R*,4R*)-9-cyclopropyl-7,8-diazatricyclo[4.3.0.0^2,^4]nona-1(6),8-dien-7-yl]acetamide], the EC50 came to 0.015 nM. The result for `Cc1cc(C2CCC(F)(F)CC2)nc2nc([C@H](Cc3cc(F)cc(F)c3)NC(=O)Cn3nc(C4CC4)c4c3C(F)(F)[C@@H]3C[C@H]43)n(-c3ccc(Cl)c4c(NS(C)(=O)=O)nn(CCN5CC(C)(C)OC(C)(C)C5)c34)c(=O)c12` (atropisomer, axis not shown; (P)) [Example 610, N-[(1S)-1-[(3P)-3-{4-chloro-3-methanesulfonamido-1-[2-(2,2,6,6-tetramethylmorpholin-4-yl)ethyl]-1H-indazol-7-yl}-7-(4,4-difluorocyclohexyl)-5-methyl-4-oxo-3H,4H-pyrido[2,3-d]pyrimidin-2-yl]-2-(3,5-difluorophenyl)ethyl]-2-[(2S,4R)-9-cyclopropyl-5,5-difluoro-7,8-diazatricyclo[4.3.0.0^2,^4]nona-1(6),8-dien-7-yl]acetamide] reads 0.017 nM.

These data come from patent US12594276B2, “Inhibitors of human immunodeficiency virus replication” (ViiV Healthcare UK (No.5) Limited, priority 2024, dated 2026).
